The values below come from article PMC12020424, “Identification and Validation of Cyclic Peptides with Mucin-Selective, Location-Specific Binding in the Gastrointestinal Tract” (ACS Nano, 2025).

“And” between values parts separate entries of the source, which are not always exact repeats. Identical values can stand only once. Like-named read-outs stand apart in the source and are kept apart here. Bridge positions count the residues as written; N and C are the ends. Peptide text beside a SMILES is read from it.

The target in one assay is MUC2 (Homo sapiens, UniProt Q02817). Put plainly: Biolayer interferometry binding kinetics, MUC2. Conditions: Octet RED96, biotinylated MUC2 on streptavidin sensor; for Kd: PBS pH 7.2, koff/kon, read-out: dissociation constant kd; for kon: PBS pH 7.2, association 300 s, dissociation 300 s. As to the method: (§1) Binding kinetics for the successful mucin-binding hits were measured using biolayer interferometry (BLI).[73] In BLI, a protein target is immobilized on the surface of a biosensor, creating a thin optical layer. These coated sensors are then exposed to a solution of the ligand (in this case, the small molecule and peptide hits), allowing the ligand to associate and dissociate with the protein target. This association/dissociation behavior changes the thickness of the optical layer, and the instrument correlates this change in thickness with binding and desorption. By testing different concentrations of the ligand, the kinetic rate constants and dissociation constant (kd) can be measured by fitting the resulting binding curves according to a binding model.[73]
(§2) For the analysis of mucin-binding kinetics, mucins MUC2 and MUC5AC were used as the protein targets, and the “hits” were used as the ligands of interest. Mucins were biotinylated and suspended in buffers with different pH levels (MUC2 in PBS with pH 7.2 and PBS-HCl with pH 3.35, MUC5AC in PBS-HCl with pH 1.82) that mimic the pH of the normal small intestine,[74] the small intestine during inflammatory bowel disease,[75] and the normal stomach,[76] respectively. Hits were dissolved in the same buffer to minimize the optical differences among the buffer, mucin solution, and analyte solution. BLI was carried out on an Octet RED96 platform in five steps. First, a baseline step of 60 s was carried out. Then, biotinylated mucins were immobilized onto the surface of a streptavidin sensor during a loading step of 300 s. Next, the loaded tips were allowed to re-equilibrate in another baseline step for 60 s. Following that, the loaded tips were allowed to incubate in a solution of analyte (an association step) for 300 s; this allowed the hits to interact with the mucin, changing the thickness of the optical layer and generating a response from the optical measurement. Finally, the tips were moved to buffer wells, and the hits were allowed to dissociate from the mucin for 300 s. Data were analyzed, and ligand-only and hit-only controls were used as references to properly characterize the binding performance of the hits.
(§3) Binding of the hits to the mucins generally follows one of two different mechanisms. The first is a 1:1 bimolecular model in which the molecule binds to a specific spot on the mucin. The reaction can, therefore, be described using the following model:[77] [drawing 3]
(§4) In this model, kon represents the rate of association of the hit to the mucin, while koff represents the rate of dissociation of the molecule from the molecule-mucin complex. The dissociation constant is calculated as the ratio of these two rate constants.
(§5) The second model is a 2:1 heterogeneous model, in which the molecule binds at two locations on the mucin (each with its own kinetic rate constants and dissociation constant).[78] These reactions are described using the following model: [drawing 4]
(§6) The rate constants for each interaction are equivalent to those of the single interaction present in the 1:1 model, while each interaction has its own dissociation constant. This was calculated similarly to the 1:1 model.

The target of another assay is MUC5AC (Homo sapiens, UniProt P98088). Kind of assay: Biolayer interferometry binding kinetics, MUC5AC. Conditions: for Kd: PBS-HCl pH 1.82, koff/kon, read-out: dissociation constant kd. The procedure:
as §1, §2, §3, §4, §5, §6

For assay [1], the system named is MUC5AC-containing stomach tissue. Put plainly: Ex vivo fluorescent binding to stomach tissue. Also noted: species or system porcine. Conditions: MUC5AC-selective peptides to stomach, scaled between free AF647 (0) and WGA-AF647 (1), mean across trials n = 3. From the text: (§7) After identifying the peptide hits for each mucin, we tested their binding in an ex vivo setting (Figure S1), evaluating their interaction with mucin-containing porcine tissue and semiquantitatively representing it through fluorescent imaging (Figure 3a). The cyclic peptides were synthesized and conjugated to a fluorophore, Alexa Fluor 647 (AF647), at the N-terminus to allow fluorescent imaging to be used to semiquantitatively measure the peptides’ ex vivo tissue binding, compared to free AF647 and AF647 conjugated to wheat germ agglutinin (WGA), a known lectin for glycoproteins.[40] […] Porcine GI tissue was used due to its similarity in mucin expression compared to human GI tissue and its capacity to source large surface areas of tissue for experiments.[41],[42] Representative IVIS images are shown in Figure 3b-e, where the first four columns represent the four identified peptides (M2.1–M2.4 in Figure 3b,c, M5.1–M5.4 in Figure 3d,e), the fifth column represents WGA-AF647, and the sixth column represents AF647. The “score” results for the peptide ligands are presented in Figure 3f,g for the mucins of interest, with Tables S2–S5 and Figure S3 detailing results for the other tissues (the equation for calculating the “score” is found in the Materials and Methodssection). […] We also examined selectivity by incubating peptides on nontarget tissues. Figure 3h,i depicts the “selectivity” results for the MUC2-selective and MUC5AC-selective peptides, respectively. Selectivity was calculated by determining the ratio of the “score” for a particular mucin to the sum of the “scores” for all mucins (see the Materials and Methods section for the equation used).
The top-performing hits from phage display were tested on ex vivo segments of porcine mucin-containing tissues (jejunal, stomach, and esophageal tissues) obtained from local abattoirs or laboratory-maintained pigs. Tissue was used either immediately after acquisition or after storage at −80 °C; tissue was used at most 1 week after acquisition and storage at −80 °C. After acquisition and equilibration to room temperature, the tissue was washed twice with 25 mL (each) of cold 1× PBS to remove undigested food and other debris. After washing and cleaning, the tissue was mounted between two magnetic plates with holes corresponding to a 48-well plate, as previously described,[72] such that the luminal side of the tissue was facing up (Figure S1). After the tissue was mounted, the amount of peptide/protein corresponding to 40 μg of AF647 was suspended in 200 μL of 1× PBS and added to the wells created by the magnetic plates. This was done 3× for each formulation to perform the experiment in triplicate. In addition, plain 1× PBS was added to one well to serve as the background measurement. […] After washing was complete, fluorescence imaging was performed using an IVIS Spectrum fluorescent imaging system (PerkinElmer), with an automatically calculated exposure time (usually ∼1 s), a 20 cm × 20 cm field of view, and an excitation/emission of 640/680 nm, respectively. The imaging results were analyzed using Living Image software to calculate the total fluorescence intensity for each well, and the results for each hit or control were averaged across different wells. […]
(§8) To better account for tissue-to-tissue variability, the results for each trial were reported as scores rather than using the raw fluorescence intensity. […]

The subject of assay [2] is MUC2-containing intestinal tissue (jejunal). Put plainly: Ex vivo fluorescent binding to small intestine tissue. Also noted: species or system porcine. Conditions: MUC2-selective peptides to small intestine, scaled between free AF647 (0) and WGA-AF647 (1), mean across trials n = 3.
Source text: as §7
The top-performing hits from phage display were tested on ex vivo segments of porcine mucin-containing tissues (jejunal, stomach, and esophageal tissues) obtained from local abattoirs or laboratory-maintained pigs. Tissue was used either immediately after acquisition or after storage at −80 °C; tissue was used at most 1 week after acquisition and storage at −80 °C. After acquisition and equilibration to room temperature, the tissue was washed twice with 25 mL (each) of cold 1× PBS to remove undigested food and other debris. After washing and cleaning, the tissue was mounted between two magnetic plates with holes corresponding to a 48-well plate, as previously described,[72] such that the luminal side of the tissue was facing up (Figure S1). After the tissue was mounted, the amount of peptide/protein corresponding to 40 μg of AF647 was suspended in 200 μL of 1× PBS and added to the wells created by the magnetic plates. This was done 3× for each formulation to perform the experiment in triplicate. In addition, plain 1× PBS was added to one well to serve as the background measurement. After the peptides were added, the plate setup was covered with aluminum foil and allowed to incubate for 1 h at room temperature with gentle agitation (50 rpm). After incubation, the nonbinding peptides were removed by pouring out the solutions onto a clean paper towel, and the setup was washed three times by adding 200 μL of 1× PBS to each well and gently agitating the setup for 30 s before removing the washing solution. After washing was complete, fluorescence imaging was performed using an IVIS Spectrum fluorescent imaging system (PerkinElmer), with an automatically calculated exposure time (usually ∼1 s), a 20 cm × 20 cm field of view, and an excitation/emission of 640/680 nm, respectively. The imaging results were analyzed using Living Image software to calculate the total fluorescence intensity for each well, and the results for each hit or control were averaged across different wells. The negative control used was unconjugated AF647, while the positive control was WGA-AF647, since WGA is a known lectin that binds glycoproteins.
as §8

[3] abbreviates: BLI, Octet RED96, biotinylated MUC5AC on streptavidin sensor.

Broadly, the Kd is the concentration at which binding is half-saturated. What is called kon is the rate constant with which the complex forms.

Turning to `C[C@@H]1NC(=O)[C@H](CCCNC(=N)N)NC(=O)[C@H](CC(=O)O)NC(=O)[C@@H]2CCCN2C(=O)[C@H](CCCNC(=N)N)NC(=O)CNC(=O)[C@H](CC(=O)O)NC(=O)[C@@H](N)CSSC[C@@H](C(=O)O)NC1=O` [Peptide M2.3] (H-CDGRPDRAC-OH; disulfide 1-9), the Kd on MUC2 (BLI) is 7.11 nM; at MUC5AC (setting [3]), 65.4 nM.
With `CC[C@H](C)[C@@H]1NC(=O)[C@@H]2CCCN2C(=O)CNC(=O)[C@@H](N)CSSC[C@@H](C(=O)O)NC(=O)[C@H](CC(C)C)NC(=O)[C@H](C)NC(=O)[C@H]([C@@H](C)O)NC(=O)[C@H](Cc2ccc(O)cc2)NC1=O` [Peptide M5.2] (H-CGPIYTALC-OH; disulfide 1-9), the figures for the Kd at MUC2 (BLI) and on MUC5AC (setting [3]) were 112 nM and 7.88 nM, respectively. Moreover, the “kd for MUC5AC binding compared with MUC2 binding (stronger)” value at MUC5AC (BLI, MUC5AC pH 1.82 vs MUC2) is reported as 2 orders of magnitude.
Turning to `CC(C)C[C@@H]1NC(=O)[C@H](CO)NC(=O)[C@H](CO)NC(=O)[C@H](C)NC(=O)[C@@H](N)CSSC[C@@H](C(=O)O)NC(=O)[C@H](CCCNC(=N)N)NC(=O)[C@H](C(C)C)NC(=O)[C@H](CO)NC1=O` [Peptide M2.4] (H-CASSLSVRC-OH; disulfide 1-9), the Kd on MUC2 (BLI) was found to be 112 nM. The kon at MUC2 (pH 7.2, BLI, read-out: kon) stood at 57700 M⁻¹ s⁻¹; at MUC5AC (pH 1.82, BLI, Octet RED96, biotinylated MUC5AC on streptavidin sensor, PBS-HCl pH 1.82, association 300 s, dissociation 300 s), 29500 M⁻¹ s⁻¹.
As for `CSCC[C@@H]1NC(=O)CNC(=O)[C@H](CCSC)NC(=O)[C@H]([C@@H](C)O)NC(=O)[C@H](CC(C)C)NC(=O)[C@H](C)NC(=O)[C@H]([C@@H](C)O)NC(=O)[C@@H](N)CSSC[C@@H](C(=O)O)NC1=O` [Peptide M5.3] (H-CTALTMGMC-OH; disulfide 1-9), at MUC2 (BLI), the kon was 6.33 × 10^4 M^–1s^–1 and ~10^4 M^–1s^–1. Further, the Kd at MUC5AC (setting [3]) was 1.54 nM.
In the case of “Alexa Fluor 647 [Free dye, reference compound]”, the “Overall nanoparticle “score”” value in assay [1] and in assay [2] was 0 in each case.
